Literature values, collected in US20240156966A1 (priority 2021, published 2024).

Test system: influenza virus
Details: in vivo

CCOC(=O)C1=C[C@@H](OC(CC)CC)[C@H](NC(C)=O)[C@@H](N)C1 [Oseltamivir]
patients with detectable viral RNA: 50.0%
